Results: US7482362B2, “Substituted-4-quinolones” (priority 2000, dated 2009)

Legend:
IL-2 = IL-2 release from ConA-stimulated human PBMC, sandwich ELISA; type: cell-based; conditions: ConA 1 μg/ml, culture supernatant, FIG. 4B
Procedure: Human peripheral blood mononuclear cells (PBMC) were isolated from heparinised whole blood by buoyant density centrifugation over Histopague 1077 (Sigma, Poole, UK) 600 g for 20 minutes. PBMC harvested from the ‘buffy’ layers were washed and then aliquoted into 96-well plates at 100,000 per well. PBMC were exposed to bacterial quorum sensing molecules (PQS or OdDHL) at concentrations ranging from 0.78125 to 100 μM and then stimulated with 1 μg/ml of Concanavalin A (ConA). After an overnight culture 50 μl of the culture supernatant was removed for the detection of IL-2 released by ‘sandwich’ ELISA. […] Following an 18-hour pulse the human PBMC were harvested onto fibreglass filters which were then counted in the presence of MicroScint-O with the Packard TopCount scintillation counter.
Human leucocytes when stimulated with ConA released the cytokine IL-2. The levels of cytokine produced in the culture supernatants after 24 h were determined in a ‘sandwich’ ELISA. […] Following four washes, the bound biotinylated antibody was detected with 50 μl of a 1:1,000 dilution of Streptavidin-peroxidase (BD Pharmingen, UK). […] The enzyme reaction was stopped with 50 μl of 2.5 M H2SO4 after a development of 10 minutes at room temperature and the development was read at 450 nm with a spectrophotometric 96-well plate reader.

TNF-α = assay: In vitro LPS stimulation of human PBMC for the release of TNF-α, sandwich ELISA; type: cell-based; conditions: FIG. 4C
Procedure: Human PBMC, at 100,000 cell per well, were stimulated with 1×10^−5 μg/ml LPS E. coli strain 055:B5. Following culture for 24 hours the cell culture supernatants were collected and tested for TNF-α levels by ‘sandwich’ ELISA similarly described above for the IL-2 detection assay.

[1] = tested on: Human peripheral blood mononuclear cells (PBMC); assay: In vitro proliferation assay of ConA-stimulated human PBMC (3H-thymidine); type: cell-based; conditions: ConA 1 μg/ml, 0.78125 to 100 μM; FIG. 4A
Procedure: Human peripheral blood mononuclear cells (PBMC) were isolated from heparinised whole blood by buoyant density centrifugation over Histopague 1077 (Sigma, Poole, UK) 600 g for 20 minutes. PBMC harvested from the ‘buffy’ layers were washed and then aliquoted into 96-well plates at 100,000 per well. PBMC were exposed to bacterial quorum sensing molecules (PQS or OdDHL) at concentrations ranging from 0.78125 to 100 μM and then stimulated with 1 μg/ml of Concanavalin A (ConA). After an overnight culture 50 μl of the culture supernatant was removed for the detection of IL-2 released by ‘sandwich’ ELISA. The cells were returned to culture for another 24 hours before 0.25 μCi per well of ^3H-thymidine was added. Following an 18-hour pulse the human PBMC were harvested onto fibreglass filters which were then counted in the presence of MicroScint-O with the Packard TopCount scintillation counter.

Mono Mac 6 cells = assay: Mono Mac 6 cellular viability by MTS conversion to formazan; type: cell-based, human; conditions: Mono Mac 6, 100,000 cells per well, overnight exposure, 3.90625 to 500 μM; FIG. 2, 3
Procedure: The human monocytic cell line, Mono Mac 6, was treated with concentrations of bacterial quorum sensing molecules 2-heptyl-3-hydroxy-4(1H)quinolone (PQS), N-(3-oxododecanoyl)-L-homoserine lactone (OdDHL) and N-(3-oxohexanoyl)-L-homoserine lactone. Cells at 100,000 per well were exposed to quorum sensing molecules ranging from 3.90625 to 500 μM after which the cells were stimulated with 10 ng/ml E. coli LPS and 5 ng/ml phorbol-myristrate acetate to induce the overnight release of TNF-αinto the culture media. A tetrazolium compound (3-(4,5-dimethylthazol-2-yl)-5-(3-carboxymethoxyphenyl)-2-(4-sulfophenyl)-2H-tetrazolium, inner salt MTS was added to the cells to determine cellular viability after treatment with the quorum sensing molecules. MTS is bioreduced by cells into a formazan product that is soluble in tissue culture medium. The production of formazan was determined by measuring the absorbance of the compound at 450 nm. The results are shown in FIG. 2. A titration of cell numbers was included to correlate to the number of viability cells in the treated wells as set out in the table below.

murine splenocytes = assay: ConA mitogen-stimulated proliferation of murine splenocytes ([3H]-thymidine incorporation); type: cell-based, mouse (BALB/c); conditions: ConA 1 μg/ml, 100,000 spleen cells, compound about 10 to 0.2 μM; FIG. 1
Procedure: 1. ConA Mitogen-Stimulated Proliferation of Murine Splenocytes
The concanavalin A (ConA) cell proliferation assay was used to assess the effect of the title compound on T-cell activation and proliferation. Proliferation was assessed by the incorporation of [^3H]-thymidine into DNA. Eight-week-old female BALB/c mice were obtained from Harlan (Bicester, Oxon, UK) and given food and water ad libitum. Splenocyte suspensions were prepared by removing the spleens and placing them into RPMI 1640 medium. The spleens were forced through 70 μm pore size wire gauzes using the plunger from a 5 ml syringe to produce a single cell suspension. The cells were pelleted by centrifugation, and erythrocytes were lysed with 0.017M Tris, 0.144M ammonium chloride buffer, pH 7.2. Leucocytes were washed twice with RPMI 1640 medium with 2% (vol/vol) foetal calf serum (FCS) and resuspended in complete cell culture medium (CTCM) consisting of RPMI 1640 medium with 5% FCS, 2 mM L-glutamine, and 5×10−5 M 2-mercaptoethanol. The title compound was tested at doubling down dilutions ranging from about 10 to 0.2 μM in a final volume of 200 μl of CTCM, containing ConA (Sigma, Poole, UK) at 1 μg/ml and 100,000 spleen cells. […] After the addition of 25 μl of MicroScint-O (Packard) to each well the filters were counted with the Packard TopCount scintillation counter. […]

| Compound | IL-2 secretion (IL-2) | TNF-α production (TNF-α; LPS E. coli 055:B5, 24 hours) | human PBMC cell proliferation [1] | TNF-α production at high dose (TNF-α; LPS-stimulated, high dose) | TNF-α production at low dose (TNF-α; LPS-stimulated, low dose) | cell viability, as adjudged by MTS conversion (Mono Mac 6 cells) | splenocyte proliferation (counts per minute, [3H]-thymidine incorporation) (murine splenocytes) |
| --- | --- | --- | --- | --- | --- | --- | --- |
| CCCCCCCCCC(=O)CC(=O)N[C@H]1CCOC1=O [OdDHL, N-(3-oxododecanoyl)-L-homoserine lactone] | inhibits | inhibits | inhibits |  |  |  |  |
| CCCCCCCc1[nH]c2ccccc2c(=O)c1O [PQS, 2-heptyl-3-hydroxy-4(1H)quinolone] |  |  |  | may enhance | no effect | no effect | inhibits |
